In US20190255175A1, “ACTIVATION OF TRPA1+ NOCICEPTORS IN THE VAGUS NERVE ATTENUATES SYSTEMIC INFLAMMATION” (THE FEINSTEIN INSTITUTE FOR MEDICAL RESEARCH, priority 2018, published 2019):

Columns and labels:
TRPA1+ neurons [1] = biological target: T1, TRPA1+ neurons (Mus musculus, UniProt Q8BLA8); experiment: Pharmacological stimulation of TRPA1+ neurons with polygodial in endotoxemic mice; TNF by ELISA; assay type: in vivo; details: wildtype mice; polygodial 5 mg/kg ip 30 min before endotoxin 0.1 mg/kg ip; collected after 90 min
T1 construct: from tissue; host or cells: living mice (wild type and TRPA1 KO), systemic i.p. dosing; TRPA1+ neurons
Experimental: (§1) FIG. 2A-2D. […] A) Serum: wildtype mice received intraperitoneal administration of polygodial (5 mg/kg) (n=6) or vehicle (n=5). After 30 minutes, mice were subjected to endotoxemia (0.1 mg/kg endotoxin, i.p.). Blood was collected after 90 min and serum TNF levels were determined by ELISA. *p<0.05. B) Spleen: wildtype mice received intraperitoneal administration of polygodial (5 mg/kg) (n=7) or vehicle (n=6). After 30 minutes, mice were subjected to endotoxemia (0.1 mg/kg endotoxin, i.p.). Spleens were collected after 90 min and serum TNF levels were determined by ELISA. *p<0.05. C, D) Pharmacological Stimulation of TRPA1+ neurons fail to attenuate TNF levels in endotoxemic TRPA1 KO mice. C) Serum: TRPA1 KO mice received intraperitoneal administration of polygodial (5 mg/kg) (n=9) or vehicle (n=8). After 30 minutes, mice were subjected to endotoxemia (0.1 mg/kg endotoxin, i.p.). Blood was collected after 90 min and serum TNF levels were determined by ELISA. D) Spleen: TRPA1 KO mice received intraperitoneal administration of polygodial (5 mg/kg) (n=9) or vehicle (n=8). After 30 minutes, mice were subjected to endotoxemia (0.1 mg/kg endotoxin, i.p.). Spleens were collected after 90 min and serum TNF levels were determined by ELISA.

TRPA1+ neurons [2] = experiment: as above; assay type: in vivo; details: TRPA1 KO mice; polygodial 5 mg/kg ip 30 min before endotoxin 0.1 mg/kg ip; collected after 90 min
Experimental: as §1

[3] = biological target: T2, TRPA1+ fibers of the vagus nerve (Mus musculus, UniProt Q8BLA8); experiment: Optovin applied to the vagus nerve with 405 nm optical stimulation, followed by LPS endotoxemia; serum TNF; assay type: in vivo, mice
T2 construct: optovin was applied directly to nerve; from tissue; also TRPA1 KO and α7 nAChR KO groups
Experimental: (§2) FIG. 1A-1C. Stimulation of sensory TRPA1+ vagus fibers attenuates serum TNF levels in endotoxemic mice. A) Wild type mice were treated with optovin directly to the vagus nerve, followed by exposure to no light (n=9) or 405 nm light (n=10). Mice were also subjected to a proximal vagotomy (n=12) cutting off afferent signaling to the brain. These mice were also treated with optovin and stimulated with 405 nm light. B) TRPA1 KO mice were treated with optovin directly to the vagus nerve. The mice were then treated with no light (n=9) or 405 nm light (n=8). C) α7 KO mice were treated with optovin directly to the vagus nerve. The mice were then treated with no light (n=10) or 405 nm light (n=12). Two asterisks indicate p<0.01.
(§3) Optical stimulation was generated by Thor Labs LED driver DC4100, with a 405 nm LED model M405L3 (Newton, N.J.). Sham mice underwent surgical control up to the point of identifying the cervical vagus nerve, without isolating it from the bundle. In both conditions 2 μl of optovin was applied directly on the nerve for 2 minutes prior to stimulation. Sham animals received no light applied to the nerve. The stimulated group received 405 nm light 1000 mA, 10 hz, with a 10% duty cycle for 5 minutes with an approximate power of 80-85 μW. Animals then recovered for 2 hours and were administered LPS (8 mg/kg) via intraperitoneal (ip) injection. Mice were euthanized 1.5 hours after LPS administration, with serum collected.
(§4) All vagotomized animas had their vagus nerve isolated. Prior to the vagotomy a 6.0 suture was tied around the vagus nerve. The nerve was then cut proximally or above (blocking left vagus nerve signaling to the brain while signaling to the periphery remained intact) to where 2 μl of optovin was to be added. All mice were stimulated using the same parameters as previously indicated. Animals then recovered for 2 hours and were administered LPS (8 mg/kg) via intraperitoneal (ip) injection. Mice were euthanized 1.5 hours after LPS administration, with serum collected.
(§5) Vagus nerve stimulation has been used as a treatment for peripheral inflammation in both rodents and humans^18-21. TRPA1 is an ion channel that has been indicated in neural sensing of inflammation within the skin and lungs 22-24. To determine TRPA1's role in the inflammatory reflex, photochemical stimulation of TRPA1+ fibers of the vagus nerve was carried out using a molecule called optovin. Optovin selectively binds to TRPA1 making it photoactive to 405 nm light^25. To directly stimulate the TRPA1+ vagus nerve fibers, optovin was applied directly to nerve, with one group unstimulated and one group stimulated with the 405 nm light for 5 minutes with LPS (8 mg/kg) administer 2 hours later. […]

[4] = system: TRPA1+ fibers of the vagus nerve; experiment: as above; assay type: in vivo, mice; details: TRPA1 KO mice; optovin + 405 nm light vs no light; LPS 8 mg/kg
Experimental: as §2, §3, §4, §5

nodose ganglion neurons = experiment: Whole-cell patch clamp recordings of nodose ganglion neurons; assay type: cell-based, mice; details: nodose neurons held at −65 mV; IL-1β 20 μg/ml
Experimental: Whole-cell patch clamp recordings were made with glass pipettes pulled on a P-97 electrode puller (Sutter Instruments, Novato, Calif.). The resistance of the pipettes was 2-4 MΩ when filled with an intracellular solution (in mM: CsCl 140, HEPES 10, EGTA 5, Mg-ATP 2, NaGTP 0.3, MgCl2 2, Phosphocreatine 10, pH 7.25 adjusted with CsOH). Cells were superfused at a rate of 2 ml/min with an external bath solution containing the following (in mM): 150 NaCl, 2.5 KCl, 10 HEPES, 10 D-glucose, 2 CaCl2, and 1 MgCl2, pH 7.3-7.4. Experiments were performed at room temperature (22-24° C.). Currents from neurons were monitored with an Multiclamp 700B amplifier (Molecular Devices, Union City, Calif.), acquired through Digidata 1550B (Molecular Devices) onto a computer using pClamp 11 software (Molecular Devices). Data were analyzed using Clampfit 11 (Molecular Devices). All chemicals used for electrophysiological recordings were purchased from Sigma. All drugs and solutions were made fresh from drug stock solutions.
Using patch clamp recordings, IL-1β responses were recorded in nodose ganglion neurons. Application of IL-1β (20 μg/ml) induced calcium influx as indicated by increase of fluorescence in 6 out of 332 (1.8%) sensory nodose ganglion neurons from VGlut2-GCaMP3 mice. Next, whole-cell patch clamp recordings were carried out on the same neurons that responded to IL-1β in calcium influx analysis. When the membrane potential was held at −65 mV, bath application of IL-1β (20 μg/ml) produced slow inward currents in 4 out of 332 (1.2%) nodose neurons. The amplitude of IL-1β induced currents are 108±23 pA (n=4). […] In current-clamp mode, IL-1β reduced action potential threshold from −25±2 mV to −31±3 mV (n=4). […] To further determine the potential interaction of TRPA1 with IL-1β, nodose ganglion neurons from TRPA1 KO mice were examined in a culture system. […] IL1R1 co-localizes with TRPA1 on nodose ganglion neurons, as was determined using immunohistochemical staining.

T2 sequence (Q8BLA8 whole entry): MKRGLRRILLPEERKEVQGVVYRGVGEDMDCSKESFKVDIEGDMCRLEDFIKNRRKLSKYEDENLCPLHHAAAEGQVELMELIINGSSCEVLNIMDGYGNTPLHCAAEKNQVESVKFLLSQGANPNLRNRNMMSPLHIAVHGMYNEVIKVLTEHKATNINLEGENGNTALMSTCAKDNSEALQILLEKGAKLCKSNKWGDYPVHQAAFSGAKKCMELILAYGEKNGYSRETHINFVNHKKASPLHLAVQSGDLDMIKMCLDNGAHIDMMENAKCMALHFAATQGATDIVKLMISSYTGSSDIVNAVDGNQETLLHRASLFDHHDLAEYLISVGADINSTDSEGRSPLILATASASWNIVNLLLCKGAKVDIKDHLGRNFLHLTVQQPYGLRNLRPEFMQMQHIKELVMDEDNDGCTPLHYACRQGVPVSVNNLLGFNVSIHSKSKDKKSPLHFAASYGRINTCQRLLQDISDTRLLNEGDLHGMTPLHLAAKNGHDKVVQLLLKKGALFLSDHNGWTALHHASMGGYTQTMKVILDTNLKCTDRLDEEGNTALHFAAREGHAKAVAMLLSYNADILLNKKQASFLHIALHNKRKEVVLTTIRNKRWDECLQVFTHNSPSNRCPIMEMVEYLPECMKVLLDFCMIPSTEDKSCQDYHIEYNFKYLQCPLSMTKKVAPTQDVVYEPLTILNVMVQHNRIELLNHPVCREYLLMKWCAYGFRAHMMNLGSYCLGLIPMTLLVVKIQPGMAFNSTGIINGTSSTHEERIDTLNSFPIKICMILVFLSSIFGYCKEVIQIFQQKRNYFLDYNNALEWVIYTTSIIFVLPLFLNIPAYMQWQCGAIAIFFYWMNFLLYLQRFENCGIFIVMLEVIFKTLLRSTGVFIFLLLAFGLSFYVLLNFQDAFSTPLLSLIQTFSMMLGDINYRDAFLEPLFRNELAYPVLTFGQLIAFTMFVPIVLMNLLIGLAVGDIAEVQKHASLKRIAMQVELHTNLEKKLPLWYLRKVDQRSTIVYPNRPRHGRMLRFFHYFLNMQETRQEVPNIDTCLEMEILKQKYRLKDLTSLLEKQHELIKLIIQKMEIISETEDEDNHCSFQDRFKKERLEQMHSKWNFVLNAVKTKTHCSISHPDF
T1 sequence (Q8BLA8 whole entry): as above

CC1(C)CCC[C@]2(C)[C@@H](C=O)C(C=O)=CC[C@@H]12 [polygodial]
TNF levels in serum (TRPA1+ neurons [1]): attenuates TNF levels | TNF levels in spleen (TRPA1+ neurons [1]): attenuates TNF levels | TNF levels in serum (TRPA1+ neurons [2]): no significant reduction | TNF levels in spleen (TRPA1+ neurons [2]): no significant reduction

Cc1cc(/C=C2/SC(=S)NC2=O)c(C)n1-c1cccnc1 [optovin]
TNF levels in response to LPS ([3]; proximally vagotomized mice, optovin + 405 nm light, LPS 8 mg/kg): no significant reduction in TNF levels | TNF levels in response to LPS ([3]; wild type mice, optovin on vagus nerve, 405 nm light 5 min vs no light, LPS 8 mg/kg ip 2 h later, serum 1.5 h after LPS): significantly reduced TNF levels | serum TNF levels ([3]; α7 nAChR KO mice, optovin + 405 nm light vs no light, LPS 8 mg/kg): did not significantly reduce serum TNF levels | TNF levels in response to LPS [4]: no significant reductions in TNF levels

Cn1cnc2ncn(Cc3nc(CCc4ccc(Cl)cc4)no3)c(=O)c21 [AM0902, reference compound]
Block of inward currents after IL-1β application (nodose ganglion neurons): completely blocked
